The source of these data is patent publication US5434182A (priority 1993, dated 1995).

Several values for one entry are separate records, joined by “and”; a condition that tells them apart may be missing. Equal values may be shown once. Read-outs that look alike come from different tables or passages of the source.

For series [1], the system named is VSV. The series can be described thus: microbe, parasite or virus in culture. The following applies: Vesicular stomatitis virus. Type of series: cell-based, vesicular stomatitis virus.
For series [2], the system named is Total White Blood Cells. In words: Stability of white blood cells in whole human blood to added lipid. The series is classed as cell-based. The following applies: 15 mM, control 6.4. The arrangement: unit not given here. From the text:
Further testing has shown the effect of monoglyceride esters and ether on the total white blood cell concentration in whole human blood.

Series [3] is described as follows: Solubility. The following applies: vs 1-monodecanoyl-rac-glycerol. Type of series: physicochemical.
Series [4] relates to VSV. The series can be described thus: microbe, parasite or virus in culture. Type of series: cell-based, vesicular stomatitis virus. The conditions noted are these: for Reduction in VSV titer: 10 mM sodium taurocholate, human plasma; for log reduction at 4000 µM / log reduction at 7500 µM / log reduction at 15000 µM: Vesicular stomatitis virus, read-out: Reduction in VSV titer.

Series [5] has as its system VSV. In words: microbe, parasite or virus in culture. Type of series: cell-based, vesicular stomatitis virus strain Indiana. The conditions noted are these: for minimal effective concentration: read-out: Lowest concentration causing ≥3.0 log10 reduction in virus titer.
In series [6] the test system is Red Blood Cells. The series can be described thus: Stability of red blood cells in whole human blood to added monoglyceride. The conditions noted are these: 3 mg/ml. Type of series: cell-based. From the text:
Effect of Added Monoglyceride on RBCs in Human Blood.

The test system of series [7] is HSV-1. In words: microbe, parasite or virus in culture. Type of series: cell-based, herpes simplex virus type 1 strain MacIntyre. The following applies: Human alphaherpesvirus 1, 0.5 h; 0.5 mg/ml, 37° C., 30 min; read-out: Reduction of virus titer, HSV-1.
Series [8] deals with Group B streptococcus. In words: Inactivation of bacteria by monoglycerides, Group B streptococcus. The following applies: 2 mg/ml, read-out: Reduction of bacterial concentration, Group B streptococcus. The series is classed as cell-based.
Setting [9] is: read-out: Reduction in VSV Titer, 7.5 mM, 0 mM sodium taurocholate, human serum.
[10] abbreviates: read-out: Reduction in VSV Titer, 7.5 mM, 2 mM sodium taurocholate, human serum.
Setting [11] is: read-out: Reduction in VSV Titer, 7.5 mM, 4 mM sodium taurocholate, human serum.
Where [12] appears, read: read-out: Reduction in VSV Titer, 7.5 mM, 6 mM sodium taurocholate, human serum.
The mark [13] stands for this setting: read-out: Reduction in VSV Titer, 7.5 mM, 8 mM sodium taurocholate, human serum.
Where [14] appears, read: read-out: Reduction in VSV Titer, 7.5 mM, 10 mM sodium taurocholate, human serum.
Where [15] appears, read: read-out: Reduction in VSV Titer, 7.5 mM, 12 mM sodium taurocholate, human serum.
Where [16] appears, read: Vesicular stomatitis virus, 0.5 h.
Setting [17] is: Vesicular stomatitis virus, 0.5 h, read-out: Reduction of virus titer, VSV.

Turning to `CCCCCCCC(=O)OCC(O)CO` (racemic) [Monocaprylin (8:0), 1-Monocapryloyl-rac-glycerol], the log reduction at 7500 µM in series [1] (setting [9]) was ≥ 1; in series [1] (setting [10]), ≥ 3; in series [1] (setting [11]) it was 4; in series [1] (setting [12]), ≥ 5; in series [1] (setting [13]), ≥ 5; in series [1] (setting [14]), ≥ 5. Moreover, the results for the log reduction at 7500 µM in series [1] (setting [15]) and in series [4] were ≥ 5 and 1, respectively. The “Total White Blood Cells” value in series [2] is reported as 2.4. Besides, in series [3], the solubility in words result is listed as “more soluble”. Moreover, the “Reduction in VSV titer” value was 2.0 log10 in series [4] (4 mM), ≥ 4.0 log10 in series [4] (7.5 mM) and ≥ 4.0 log10 in series [4] (15 mM). Besides, in series [4], the log reduction at 4000 µM amounted to 0. Moreover, the log reduction at 15000 µM in series [4] was found to be 2. The minimal effective concentration in series [5] (setting [16]) is 2000 µg/mL and 9000 µM. In addition, in series [5] (setting [17]), the log reduction at 2000 µg/mL was ≥ 4.
For the compound `CCCCCCCCCC(=O)OCC(O)CO` (racemic) [Monocaprin (10:0), 1-Monodecanoyl-rac-glycerol], the log reduction at 7500 µM in series [1] (setting [9]) is 1; in series [1] (setting [10]), ≥ 5; in series [1] (setting [11]), ≥ 5; in series [1] (setting [12]) it was ≥ 5; in series [1] (setting [13]) it was ≥ 5; in series [1] (setting [14]), ≥ 5. Moreover, the log reduction at 7500 µM in series [1] (setting [15]) was ≥ 5; in series [4] it was 1. Further, in series [6], the “lysis of RBCs in whole blood” value is on record as “does not lyse RBCs in whole blood”. The values for the log reduction at 500 µg/mL in series [7] and in series [5] (setting [17]) were ≥ 3.7 and ≥ 4, respectively. Also, in series [2], the “Total White Blood Cells” value stood at 0.7. Besides, the “Reduction in VSV titer” value in series [4] (4 mM) is 1.0 log10; in series [4] (7.5 mM) it was ≥ 4.0 log10; in series [4] (15 mM), ≥ 4.0 log10. Moreover, in series [4], the log reduction at 4000 µM is 0. For the same compound, in series [4], the log reduction at 15000 µM was ≥ 4. In addition, in series [8], the log reduction at 2000 µg/mL was 4.5. Besides, in series [5] (setting [16]), the minimal effective concentration is 500 µg/mL and 2000 µM. In addition, the “active concentration relative to corresponding free acids” value in series [5] (monoglyceride vs free acid) is “ten times lower”.
